Measurements: PMC5719400, “Engineering an aldehyde dehydrogenase toward its substrates, 3-hydroxypropanal and NAD^+, for enhancing the production of 3-hydroxypropionic acid” (Scientific Reports, 2017)

Target: T1, KGSADH (α-ketoglutaric semialdehyde dehydrogenase) (Azospirillum brasilense, UniProt Q1JUP4)
T1 construct: gene araE; N-terminal His6-tag (pQE80L), expressed in E. coli DH10β, Ni-NTA purified; catalytic residues E253 and C287
Assay: product inhibition, A340 activity assay
Type: biochemical
Settings: 2 mM NAD+, 100 mM phosphate pH 8

T1 sequence (Q1JUP4 2-481): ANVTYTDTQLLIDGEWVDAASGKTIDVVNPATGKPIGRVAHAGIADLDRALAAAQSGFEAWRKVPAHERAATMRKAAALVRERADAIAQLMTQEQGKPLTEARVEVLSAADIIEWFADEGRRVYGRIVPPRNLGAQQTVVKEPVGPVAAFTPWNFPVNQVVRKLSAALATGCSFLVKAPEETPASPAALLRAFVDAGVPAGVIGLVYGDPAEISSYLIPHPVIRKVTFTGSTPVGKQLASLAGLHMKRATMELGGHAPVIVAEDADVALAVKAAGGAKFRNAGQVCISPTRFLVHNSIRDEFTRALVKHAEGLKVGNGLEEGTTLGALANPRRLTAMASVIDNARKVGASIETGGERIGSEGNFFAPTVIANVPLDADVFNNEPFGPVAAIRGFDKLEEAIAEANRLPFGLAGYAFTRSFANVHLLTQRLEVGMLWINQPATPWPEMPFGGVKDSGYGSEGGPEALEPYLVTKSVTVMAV

O=C(O)CCO [3-HP, 3-hydroxypropionic acid]
% decrease in activity at 1 M: ~ 40%
